Reference: US20220233668A1, “GLYCOPEPTIDE VACCINE” (VICTORIA LINK LTD., priority 2019, published 2022)
“Also recorded” adds a separate entry of the source.

What was measured:
[1] = system: epitope-specific CD8+ T cell response; test: PfRPL677-85-specific response in spleen by ELISpot after peptide immunization of HHD mice; assay type: in vivo; conditions: peptide with anti-CD40 mAb and poly IC, spleen day 7
Procedure: HHD mice, which express human HLA-A*02:01 and lack expression of murine MHC class molecules, were immunized with […] anti-CD40 mAb+[…] poly IC+[…] of PfRPL677-85 peptide ([…]) (SEQ ID NO: 18), or no peptide. 7 days later, PfRPL677-85-specific responses were measured in the spleen by ELISpot, by restimulating with the same peptide. Data were analysed using two-way ANOVA; Number of experiments=2, number of mice=3-4.
Having characterized PBANKA 1351900 (60S ribosomal protein L6-2, putative) RPL6 as a promising antigen in P. berghei, we sought to identify potential human-relevant antigens in its P. falciparum ortholog (PF3D7 1338200, also known as PF13 0213). To this extent, we used the Immune Epitope Database (IEDB: https://www.iedb.org/) epitope prediction resource (Vita, R. et al. 2019) to search for peptides within P. falciparum RPL6 that were capable of binding HLA-A*02:01; a common allele.

PbT-I liver TRM cells = test: Prime-and-trap vaccination with CpG or α-GalCer as adjuvant; assay type: in vivo, C57BL/6 mice; conditions: adjuvant with αClec9a-NVY plus rAAV-NVY; 50,000 PbT-I cells; liver day 35
Description: The following day all mice were infected with 2.5×10^9 copies of rAAV-NVY. Spleens (A) and livers (B) were harvested from all mice 35 days later and the number of PbT-I TRM (CD69^+CD62L^low), TEM (CD69−CD62L^low) and TCM (CD69−CD62L^high) cells were enumerated by flow cytometry.
As illustrated above, prime-and-trap vaccination using CpG as an adjuvant was very effective at inducing liver TRM cells. To test whether CpG adjuvant might be substituted by α-GalCer, we compared prime-and-trap using CpG versus α-GalCer, (FIG. 3). C57BL/6 mice were injected with 50,000 naïve PbT-I T cells to track responses and were then vaccinated with the anti-Clec9A-NVY fusion protein together with either CpG or α-GalCer as adjuvant plus rAAV-NVY (SEQ ID NO: 15).

NKT cells = test: NKT cell expansion and activation by NVY conjugates; assay type: in vivo, C57BL/6 mice; conditions: 0.135 nmol, day 3
Description: Lymphocytes were stained with monoclonal antibodies for: CD49a (Ha31/8), NK1.1 (PK136) from BD (North Ryde, NSW, Australia), CD8a (53-6.7), KLRG1 (2F1), Ly5.1 (A20), Ly5.1 (104), CD8a (53-6.7), CD44 (IM7), Ly6C (HK1.4), TCRβ (H57-597), CXCR6 (SA051D1), CXCR3 (CXCR3-173), CX3CR1 (SA011F11), from Biolegend (Australian Biosearch, Karrinyup, WA. Australia), and CD62L (MEL-14), CD101 (Moushi101) and CD69 (H1.2F3), from eBioscience (Jomar Life Research, Scoresby, VIC, Australia). Dead cells were excluded by propidium iodide staining or far red live/dead fixable dye (ThermoFisher). In some experiments cells were stained with an α-GalCer (PBS-44—a gift from Prof. Paul Savage, Brigham-Young University, UT, USA)-loaded CD1d tetramer produced in-house at 4° C. for 30 min, washed, and further antibody staining was conducted for 10 min at 4° C. Antibodies used were for: CD3 (17A2), CD45R/B220 (RA3-6B2), NK1.1 (PK136), CD69 (H1.2F3), all from BioLegend (CA, USA). The viability dye used was DAPI (Invitrogen, NZ). Single-color positive control samples were used to adjust compensation and cells were analyzed by flow cytometry on a LSR Fortessa (BD Biosciences), or LSRII SORP using Flowjo software (Tree Star Inc.).

P. berghei sporozoites = test: P. berghei sporozoite challenge of vaccinated mice given PbT-I cells; conditions: single vaccination; 200 P. berghei ANKA sporozoites at day 42
Procedure: The remaining mice were challenged with 200 P. berghei sporozoites at day 42 and parasitemia was measured by flow cytometry from day 6-13. […] Percentage of parasites present in red blood cells at day 7 post malaria challenge. […] Number of mice that succumbed or were protected after malaria challenge.
The remaining mice in each group were challenged with 200 P. berghei sporozoites at day 73 and parasitemia was measured at day 79, 80, 81. Mice with two consecutive days of visible parasites in the blood were culled. Mice surviving challenge with low dose sporozoites were rechallenged with 3000 sporozoites. Parasitemia was measured at days 5, 6, 7, 8 and 12 post-high-dose-challenge.
As described in Example 11, 50,000 PbT-I.GFP cells were transferred into recipient C57BL/6 mice. […] Organs were harvested from mice from each group at days 21-35 post vaccination and assessed for the generation of memory T cells by flow cytometry as outlined in FIG. 5. The remaining mice per group were challenged with 200 P. berghei sporozoites at day 42 and parasitemia was measured by flow cytometry at days 6, 7, 8 and 13. […]
As described in Example 12, 50,000 PbT-I.GFP cells were transferred into recipient C57BL/6 mice. […] Organs were harvested from mice from each group at days 21 post vaccination and assessed for the generation of memory T cells by flow cytometry as outlined in FIG. 5. […]

Row | Compound | epitope-specific CD8+ T cell response [1] | liver TRM cell numbers in prime-and-trap setting (PbT-I liver TRM cells) | expansion of NKT cells (numbers in liver and spleen) (NKT cells) | activation of NKT cells (CD69, NK1.1) (NKT cells; liver and spleen) | protection after malaria challenge (P. berghei sporozoites)
1 | ILNSGLLAV | triggered an epitope-specific CD8^+ T cell response |  |  |  | 
2 | CCCCCCCCCCCCCCCCCCCCCCCCCC(=O)N[C@@H](CO[C@H]1O[C@H](CO)[C@H](O)[C@H](O)[C@H]1O)[C@H](O)[C@H](O)CCCCCCCCCCCCCC [α-GalCer, N-((2S,3S,4R)-3,4-Dihydroxy-1-(((2S,3R,4S,5R,6R)-3,4,5-trihydroxy-6-(hydroxymethyl)tetrahydro-2H-pyran-2-yl)oxy)octadecan-2-yl)hexacosanamide] |  | gave a much poorer liver TRM cell response; also recorded: does not generate large numbers of liver TRM cells; also recorded: did not produce high numbers of liver TRM cells | more efficient at expanding NKT cells than V.S.NVYLP | more potently activated NKT cells when compared to V.S.NVYLP | no mice were protected
